# Source: patent US10947273B2, “Peptides of use in the preventive and curative treatment of alopecia” (Institut Europeen de Biologie Cellulaire, priority 2015, dated 2021)
# “Also recorded” adds a separate entry of the source. The star is where a group is joined. Palmitoyl = CCCCCCCCCCCCCCCC(=O)*; Chol = cholesterol residue
# Key:
# [1] = test system: microdissected hairs from scalp surgery specimens; assay: Growth of isolated hair ex vivo; format: cell-based, human; settings: for Growth at D 11/D 12 Vs Control: ex vivo isolated hair
# Method: (§1) This study was carried out on microdissected hairs from scalp surgery specimens from women aged 52 to 71 years. Isolated hairs were kept alive for 11 to 12 days in Williams medium, under conventional cell culture conditions (37° C., 5% CO2). […]
# (§2) To evaluate the effect of (1), (6) or (9) on hair growth, the hairs were photographed and their lengths measured using image analysis software. Thus, the growth of the hairs between D0 and D11/D12 could be calculated and compared with that of the untreated control. At the end of the treatments (D11 or D12), the hairs were collected and frozen or fixed for immunolabeling and histological staining.
# PDGF [2] = assay: qPCR (TLDA) PDGF gene expression in HFDPC; format: cell-based, human; design: dose or concentration left out as unconfirmed; settings: peptide, 24 hours, relative to untreated controls
# Method: (§3) RNA was extracted and purified from cell pellets using the RNA XS Kit (Macherey-Nagel). RNA quantification was carried out with a NanoDrop device and sample quality was verified on a Bioanalyzer with RNA 6000 Nano chips (Agilent). cDNA was synthesized from 300 ng of RNA using the High-Capacity cDNA Reverse Transcription Kit (LifeTech). Quality-control qPCR assays of the cDNA were carried out in microplates on the reference gene, GAPDH, and the SIRT1 gene.
# (§4) Final qPCR experiments were carried out in a 1 μl volume on microfluidic cards (TaqMan Low Density Arrays, LifeTech) and the ABI 7900HT qPCR device. Amplification reactions were performed in duplicate using 1 to 2 ng of cDNA per qPCR reaction and TaqMan Universal Master Mix II (LifeTech).
# (§5) Ct values were obtained using the RQ Manager software. For analyses of qPCR results, Ct values were limited to 35 cycles and the duplicate assays are averaged. The GeneXPro software was used for the studies of stability and of selection of the best reference genes. Expression variations are calculated by the relative quantification method and are expressed as percent increase in expression of the gene of interest relative to the untreated controls.
# follicular markers = assay: Follicular markers in isolated hair ex vivo (immunolabeling); format: cell-based, human; settings: end of treatment D11 or D12, value = marker increased
# Method: as §1, §2
# KGF [3] = assay: qPCR (TLDA) KGF gene expression in HFDPC; format: cell-based, human; design: dose or concentration left out as unconfirmed; settings: peptide, 24 hours, relative to untreated controls
# Method: as §3, §4, §5
# HGF [4] = assay: HGF secretion by HHFK (ELISA/BioPlex); format: cell-based, human; settings: 10^−7 M, 48h
# Method: (§6) NHDF, HFDPC, HHFK and NHEM cells were treated with the peptides studied for 48h. At the end of the treatment, cell supernatants were collected and stored at −80° C. until analysis. The factors of interest secreted into the supernatant were assayed by ELISA® (R&D) or BioPlex® (BioRad®).
# (§7) The results are expressed as percent increase in the concentration of the factor present in the supernatant relative to the untreated control. The intensity of the effect varies as a function of the concentration of the peptide studied and of the cell type treated.
# PDGF [5] = assay: PDGF secretion by HFDPC (ELISA/BioPlex); format: cell-based, human; settings: 48h
# Method: as §6, §7
# VEGF [6] = assay: VEGF secretion by HFDPC (ELISA/BioPlex); format: cell-based, human; settings: 48h
# Method: as §6, §7
# VEGF [7] = assay: qPCR (TLDA) VEGF gene expression in HFDPC; format: cell-based, human; settings: peptide 10^−5 M (table title), 24 hours, relative to untreated controls
# Method: as §3, §4, §5
# SCF [8] = assay: SCF secretion by HHFK (ELISA/BioPlex); format: cell-based, human; settings: 10^−7 M, 48h
# Method: as §6, §7
# [9] = test system: genes whose expression is reduced in subjects characterized by alopecia; assay: qPCR (TLDA) overall statement, genes involved in alopecia, HFDPC; format: cell-based, human; settings: summary of Table 1
# Method: (§8) To study the effect of 9 peptides on these genes, HFDPC were treated for 24 hours with the molecules tested at 10^−7M and 10^−9M concentrations.
# as §3, §4, §5
# SCF [10] = assay: SCF secretion by NHDF (ELISA/BioPlex); format: cell-based, human; settings: 10^−7 M, 48h
# Method: as §6, §7
# VEGF [11] = assay: VEGF secretion by NHDF (ELISA/BioPlex); format: cell-based, human; settings: 48h
# Method: as §6, §7
# NGF = NGF secretion by NHDF (ELISA/BioPlex); format: cell-based, human; settings: 48h
# Method: as §6, §7
# HGF [12] = assay: HGF secretion by NHDF (ELISA/BioPlex); format: cell-based, human; settings: 48h
# Method: as §6, §7
# HGF [13] = assay: qPCR (TLDA) HGF gene expression in HFDPC; format: cell-based, human; design: dose or concentration left out as unconfirmed; settings: peptide, 24 hours, relative to untreated controls
# Method: as §3, §4, §5
# HGF [14] = assay: HGF secretion by NHEM (ELISA/BioPlex); format: cell-based, human; settings: 10^−7 M, 48h
# Method: as §6, §7
# IGF1 = assay: qPCR (TLDA) IGF1 gene expression in HFDPC; format: cell-based, human; settings: relative to untreated controls
# Method: as §8, §3, §4, §5
# VEGF [15] = assay: VEGF secretion by NHEM (ELISA/BioPlex); format: cell-based, human; settings: 10^−7 M, 48h
# Method: as §6, §7
# BMP2 [16] = assay: BMP2 secretion by HFDPC (ELISA/BioPlex); format: cell-based, human; settings: 10^−9 M, 48h
# Method: as §6, §7
# [17] = test system: immortalized human skin keratinocytes (HaCaT); assay: CellTiter-Blue proliferation of HaCaT; format: cell-based; settings: 10^−5M, 72 hours
# Method: Cell proliferation and viability were evaluated in vitro with a kit from Promega, CellTiter-Blue® Cell Viability Assay, for estimating the number of living cells present in the culture. This kit is based on detection, by measurement of fluorescence, of conversion of the dye, resazurin, into a fluorescent product (resorufin) by living and thus metabolically active cells.
# The effect of the peptides tested, (1) and (9), at 4 different concentrations (10^−5, 10^−7, 10^−9 and 10^−11M) was examined on five cell types: immortalized human skin keratinocytes (HaCaT), human hair follicular keratinocytes (HHFK), normal human dermal fibroblasts (NHDF), hair follicle dermal papilla cells (HFDPC), and normal human epidermal melanocytes (NHEM) exposed to the molecule studied for 72 hours.
# KGF [18] = assay: KGF secretion by HFDPC (ELISA/BioPlex); format: cell-based, human; settings: 48h
# Method: as §6, §7
# BMP2 [19] = assay: qPCR (TLDA) BMP2 gene expression in HFDPC; format: cell-based, human; settings: peptide 10^−7, 24 hours, relative to untreated controls
# Method: as §8, §3, §4, §5
substance,measurement,setting,value
Palm-Arg-Pro-Ala-Lys-OH (Palmitoyl-RPAK-OH; SMILES CCCCCCCCCCCCCCCC(=O)N[C@@H](CCCNC(=N)N)C(=O)N1CCC[C@H]1C(=O)N[C@@H](C)C(=O)N[C@@H](CCCCN)C(=O)O) [Peptide (9)],Growth at D 11/D 12 Vs Control,[1]; 10^−7 M,No effect
same,Growth at D 11/D 12 Vs Control,[1]; 10^−9 M,+5%
same,% stimulation PDGF gene expression,PDGF [2],304%
same,Follicular markers increased Vs Control,follicular markers; 10^−7 M,CK15
same,Follicular markers increased Vs Control,follicular markers; 10^−9 M,CK15
same,% stimulation KGF gene expression,KGF [3],156%
same,"HGF secretion, percent increase relative to untreated control",HGF [4],HGF 94%
same,"PDGF secretion, percent increase relative to untreated control",PDGF [5]; 10^−5 M,PDGF 62%
same,"PDGF secretion, percent increase relative to untreated control",PDGF [5]; 10^−7 M,PDGF 117%
same,"VEGF secretion, percent increase relative to untreated control",VEGF [6]; 10^−5 M,VEGF 10%
same,% stimulation VEGF gene expression,VEGF [7],93%
same,"SCF secretion, percent increase relative to untreated control",SCF [8],SCF 11%
same,stimulation of genes whose expression is reduced in alopecia (in words),[9],stimulate several genes
same,"SCF secretion, percent increase relative to untreated control",SCF [10],SCF 8%
same,"VEGF secretion, percent increase relative to untreated control",VEGF [11]; 10^−5 M,VEGF 24%
Chol-Ala-Arg-Pro-Ala-Lys-NH2 (Chol-ARPAK-NH2) [(7)],"NGF secretion, percent increase relative to untreated control",NGF; 10^−7 M,NGF 11%
same,"HGF secretion, percent increase relative to untreated control",HGF [12]; 10^−7 M,HGF 104%
same,"SCF secretion, percent increase relative to untreated control",SCF [10],SCF 10%
same,% stimulation HGF gene expression,HGF [13],49%
Palm-Ala-Arg-Ala-Ala-Lys-NH2 (Palmitoyl-ARAAK-NH2; SMILES CCCCCCCCCCCCCCCC(=O)N[C@@H](C)C(=O)N[C@@H](CCCNC(=N)N)C(=O)N[C@@H](C)C(=O)N[C@@H](C)C(=O)N[C@@H](CCCCN)C(N)=O) [(5)],"HGF secretion, percent increase relative to untreated control",HGF [14],HGF 8%
same,"NGF secretion, percent increase relative to untreated control",NGF; 10^−5 M,NGF 15%
same,% stimulation IGF1 gene expression,"IGF1; peptide 10^−7, 24 hours",29% (10^−7)
same,% stimulation IGF1 gene expression,"IGF1; peptide 10^−9, 24 hours",16% (10^−9)
same,"HGF secretion, percent increase relative to untreated control",HGF [4],HGF 104%
same,"PDGF secretion, percent increase relative to untreated control",PDGF [5]; 10^−5 M,PDGF 39%
same,"PDGF secretion, percent increase relative to untreated control",PDGF [5]; 10^−7 M,PDGF 55%
same,% stimulation VEGF gene expression,VEGF [7],10%
same,"HGF secretion, percent increase relative to untreated control",HGF [12]; 10^−7 M,HGF 21%
same,stimulation of genes whose expression is reduced in alopecia (in words),[9],stimulate several genes
same,"VEGF secretion, percent increase relative to untreated control",VEGF [15],VEGF 5%
same,"VEGF secretion, percent increase relative to untreated control",VEGF [11]; 10^−5 M,VEGF 12%
H-Ala-Arg-Pro-Ala-Lys-OH (H-ARPAK-OH) [Peptide (1)],Growth at D 11/D 12 Vs Control,[1]; 10^−1 M,No effect
same,Growth at D 11/D 12 Vs Control,[1]; 10^−9 M,+40%
same,growth increase compared with minoxidil sulphate,"[1]; peptide 10^−9M, minoxidil sulphate 10^−5 M",close to that obtained after treatment with minoxidil sulphate
same,hair growth after 11 to 12 days of treatment ex vivo (in words),[1]; summary of Table 3,stimulate hair growth
same,Follicular markers increased Vs Control,follicular markers; 10^−1 M,Coll IV; also recorded: Laminin-5
same,Follicular markers increased Vs Control,follicular markers; 10^−9 M,Coll IV and CD34
same,"NGF secretion, percent increase relative to untreated control",NGF; 10^−9 M,NGF 13%
same,% stimulation KGF gene expression,KGF [3],14%
same,% stimulation IGF1 gene expression,"IGF1; peptide 10^−7, 24 hours",32% (10^−7)
same,"PDGF secretion, percent increase relative to untreated control",PDGF [5]; 10^−7 M,PDGF 31%
same,"PDGF secretion, percent increase relative to untreated control",PDGF [5]; 10^−9 M,PDGF 23%
same,"VEGF secretion, percent increase relative to untreated control",VEGF [6]; 10^−7 M,VEGF 9%
same,"VEGF secretion, percent increase relative to untreated control",VEGF [6]; 10^−9 M,VEGF 4%
same,"BMP2 secretion, percent increase relative to untreated control",BMP2 [16],BMP2 22%
same,"HGF secretion, percent increase relative to untreated control",HGF [12]; 10^−9 M,HGF 18%
same,stimulation of genes whose expression is reduced in alopecia (in words),[9],stimulate several genes
same,stimulation of proliferation of HaCaT,[17],+15%
same,"KGF secretion, percent increase relative to untreated control",KGF [18]; 10^−7 M,KGF 8%
same,"KGF secretion, percent increase relative to untreated control",KGF [18]; 10^−9 M,KGF 25%
same,% stimulation BMP2 gene expression,BMP2 [19],26% (10^−7)
same,"VEGF secretion, percent increase relative to untreated control",VEGF [11]; 10^−7 M,VEGF 4%
same,"VEGF secretion, percent increase relative to untreated control",VEGF [11]; 10^−9 M,VEGF5%
